Experimental data published in PubChem BioAssay (NCI).
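How tested: cells in 96-well plates exposed to compound for 48 hours at five concentrations. TGI marks complete inhibition of growth.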

Legend:
Test in all cases: NCI tumour cell line growth inhibition, 48 h
OVCAR-5 ovarian = system: OVCAR-5 ovarian
OVCAR-8 ovarian = system: OVCAR-8 ovarian
HCT-15 colon = system: HCT-15 colon
HL-60(TB) leukemia = system: HL-60(TB) leukemia
MDA-MB-231 breast = system: MDA-MB-231 breast
HCT-116 colon = system: HCT-116 colon
SNB-19 CNS = system: SNB-19 CNS
SF-268 CNS = system: SF-268 CNS
MDA-N = system: MDA-N
BT-549 breast = system: BT-549 breast
A549 NSCLC = system: A549 NSCLC
IGROV1 ovarian = system: IGROV1 ovarian
A498 renal = system: A498 renal
SF-295 CNS = system: SF-295 CNS
HOP-92 NSCLC = system: HOP-92 NSCLC
MCF7 breast = system: MCF7 breast
CAKI-1 renal = system: CAKI-1 renal
COLO 205 colon = system: COLO 205 colon
MOLT-4 leukemia = system: MOLT-4 leukemia
UO-31 renal = system: UO-31 renal
TK-10 renal = system: TK-10 renal
SK-OV-3 ovarian = system: SK-OV-3 ovarian
ACHN renal = system: ACHN renal
OVCAR-4 ovarian = system: OVCAR-4 ovarian
NCI-H522 lung = system: NCI-H522 lung
HOP-62 NSCLC = system: HOP-62 NSCLC
MDA-MB-435 = system: MDA-MB-435
U251 CNS = system: U251 CNS
EKVX NSCLC = system: EKVX NSCLC
SK-MEL-28 melanoma = system: SK-MEL-28 melanoma
CCRF-CEM leukemia = system: CCRF-CEM leukemia
SK-MEL-5 melanoma = system: SK-MEL-5 melanoma
SN12C renal = system: SN12C renal
T-47D breast = system: T-47D breast
SF-539 CNS = system: SF-539 CNS
HS 578T breast = system: HS 578T breast
KM12 colon = system: KM12 colon
SW-620 colon = system: SW-620 colon
DU-145 prostate = system: DU-145 prostate
LOX IMVI melanoma = system: LOX IMVI melanoma
NCI-H460 lung = system: NCI-H460 lung
PC-3 prostate = system: PC-3 prostate
SNB-75 CNS = system: SNB-75 CNS
RXF 393 renal = system: RXF 393 renal
NCI-H226 lung = system: NCI-H226 lung
SK-MEL-2 melanoma = system: SK-MEL-2 melanoma
786-0 renal = system: 786-0 renal
UACC-257 melanoma = system: UACC-257 melanoma
NCI/ADR-RES ovarian = system: NCI/ADR-RES ovarian
OVCAR-3 ovarian = system: OVCAR-3 ovarian
NCI-H23 lung = system: NCI-H23 lung
UACC-62 melanoma = system: UACC-62 melanoma
M14 melanoma = system: M14 melanoma
HT29 colon = system: HT29 colon
MALME-3M melanoma = system: MALME-3M melanoma
HCC-2998 colon = system: HCC-2998 colon
RPMI-8226 leukemia = system: RPMI-8226 leukemia
K-562 leukemia = system: K-562 leukemia
SR leukemia = system: SR leukemia

Measured: TGI

COc1ccc(-c2nc(-c3ccc(OC)cc3)n(-c3ccccc3)n2)cc1
62.5 µM: NCI-H522 lung
not listed: MALME-3M melanoma | HCC-2998 colon | RPMI-8226 leukemia | K-562 leukemia | SR leukemia
> 100 µM: all other assays above

C/C=C1/CN2CCC34C(=C(C(=O)OC)C1CC23)Nc1ccc(O)cc14 (stereo not drawn)
not listed: HOP-62 NSCLC | RXF 393 renal | K-562 leukemia | SR leukemia
> 100 µM: all other assays above

CC(=N/NC(=S)N1CCCCCC1)/C(C)=N\NC(=S)N1CCCCCC1
14.3 µM: OVCAR-3 ovarian
15.2 µM: HOP-62 NSCLC
3.47 µM: A498 renal
10.8 µM: SK-MEL-5 melanoma
8.88 µM: RXF 393 renal
10.6 µM: EKVX NSCLC
> 100 µM: OVCAR-8 ovarian | MDA-N | MOLT-4 leukemia | SF-539 CNS | K-562 leukemia | RPMI-8226 leukemia
48.1 µM: SNB-19 CNS
8.87 µM: TK-10 renal
11.1 µM: MALME-3M melanoma
> 23.5 µM: OVCAR-5 ovarian
12.4 µM: CAKI-1 renal
31.4 µM: NCI-H460 lung
9.79 µM: 786-0 renal
3.54 µM: T-47D breast
5.73 µM: U251 CNS
18.1 µM: A549 NSCLC
11 µM: BT-549 breast
5.23 µM: SW-620 colon
8.85 µM: SK-OV-3 ovarian
3.41 µM: MDA-MB-435
> 22.8 µM: MDA-MB-231 breast
12.7 µM: UACC-62 melanoma
8.44 µM: IGROV1 ovarian
11.2 µM: SF-268 CNS
16.8 µM: NCI/ADR-RES ovarian
13.7 µM: UACC-257 melanoma
10.9 µM: SNB-75 CNS
54.3 µM: UO-31 renal
2.77 µM: HOP-92 NSCLC
> 20.8 µM: HCT-116 colon
3.56 µM: SK-MEL-28 melanoma
12.6 µM: NCI-H23 lung
9.67 µM: ACHN renal
3.99 µM: SN12C renal
13.6 µM: HCT-15 colon
8.97 µM: NCI-H522 lung
11.8 µM: HS 578T breast
12.5 µM: SF-295 CNS
9.23 µM: NCI-H226 lung
> 25.1 µM: MCF7 breast
8.66 µM: DU-145 prostate
23.8 µM: PC-3 prostate
18.6 µM: HCC-2998 colon
38.5 µM: COLO 205 colon
17.9 µM: KM12 colon
57.9 µM: M14 melanoma
7.08 µM: HT29 colon

CN1C(=O)c2ccccc2C(O)(c2ccccc2)C1(O)c1ccccc1 (stereo not drawn)
97.7 µM: HOP-92 NSCLC
not listed: HL-60(TB) leukemia | MCF7 breast | DU-145 prostate
> 100 µM: all other assays above
